Test results as given in US20080096807A1, “Cyclic vasoactive intestinal peptide receptor-2 agonists” (priority 2006, published 2008).
Numbered stars: 1 amine (or outer) side, 2 acyl side, 3 side chain; on linkers, the order of the positions; unused ones are H or OH. Bridge positions count the residues as written; N and C are the ends. Square brackets hold non-standard residues; d marks the D form. Peptide text beside a SMILES is read from it. ξ: configuration not given here. X1 = N=C(N)CNCC[C@H](N[*:1])C(=O)[*:2]; Thr(3ξ) = CC(O)[C@H](N)C(=O)O; Nle = CCCC[C@H](N)C(=O)O

Experiments:
[1] = test system: LPS-induced lung inflammation in male C57BL/6 mice; assay: LPS-induced lung inflammation in male C57BL/6 mice (BAL neutrophilia); format: in vivo; settings: Dose 0.01%, BAL fluid neutrophilia
Experimental: C57bl/6 mice are pretreated with vehicle or drug prior to an aerosol expose to lipopolysacchride (LPS, 500 μg/ml in sterile saline) for 15-30 minutes. The aerosol is generated by a Pari Ultra neb jet nebulizer, the outlet of which is connected to a small clear plastic chamber [H×W×D, 10.7×25.7×11 cm (4×10×4.5 in)] containing the animals. Bronchoalveolar lavage (BAL) is performed 24 hr later to determine the intensity of cell inflammation. BAL procedure is performed as described below.
Mice are pretreated with vehicle or drug prior to an intranasal administration of lipopolysacchride (0.05-0.3 mg/kg in sterile saline; 50 μl total volume, 25 μl/nostril). Intranasal administration is performed by presenting small droplets of the dosing solution at the nostril using a 25-50 μl eppendorff pipet. BAL is performed 3 to 24 h post LPS challenged as described above to determine the intensity of cell inflammation.
24 h following LPS exposure, animals are anesthetized with pentobarbital (80-100 mg/kg, i.p.), ketamine/xyzaline (80-120 mg/kg/2-4 mg/kg, i.p.) or urethane (1.5-2.4 g/kg, i.p.); and through a small midline neck incision (15-20 mm), the trachea is exposed and cannulated with 20-gauge tubing adapter. Lungs are lavaged with 2×1 ml sterile Hank's balanced salt solution without Ca++ and Mg++(HBSS). Lavage fluid is recovered after 30 sec by gentle aspiration and pooled for each animal. Samples are then centrifuged at 2000 rpm for 10 minutes at 5° C. Supernatant is aspirated, and red blood cells are lysed from the resulting pellet with 0.5 ml distilled water for 30 sec before restoring osmolarity to the remaining cells by the addition of 5 ml of HBSS. Samples are recentrifuged at 2000 rpm for 10 minutes at 5° C. and supernatant aspirated. The resulting pellet is resuspended in 1 ml of HBSS. Total cell number is determined by Trypan Blue (Sigma Chemical, St. Louis, Mo.) exclusion from an aliquot of cell suspension using a hemocytometer or coulter counter. For differential cell counts, an aliquot of the cell suspension is centrifuged in a Cytospin (5 min, 1300 rpm; Shandon Southern Instruments, Sewickley, Pa.) and the slides fixed and stained with a modified Wright's stain (Hema 3 stain kit, Fisher Scientific). Standard morphological criteria is used in classifying at least 300 cells under light microscopy. Data in Table 3 is expressed as BAL cells×10^4/animal for neutrophils and total cells, or percent inhibition of the LPS induced BAL fluid neutrophilia response.

[2] = target: T1, human neutrophil elastase (Homo sapiens, UniProt P08246); assay: Peptide stability to neutrophil elastase (RP HPLC ESI MS); settings: halftime with human neutrophil elastase 1 to 2 μg/mL in PBS, ambient temperature, normalized to halftime of the reference standard
T1 sequence (P08246 30-247 limits assumed): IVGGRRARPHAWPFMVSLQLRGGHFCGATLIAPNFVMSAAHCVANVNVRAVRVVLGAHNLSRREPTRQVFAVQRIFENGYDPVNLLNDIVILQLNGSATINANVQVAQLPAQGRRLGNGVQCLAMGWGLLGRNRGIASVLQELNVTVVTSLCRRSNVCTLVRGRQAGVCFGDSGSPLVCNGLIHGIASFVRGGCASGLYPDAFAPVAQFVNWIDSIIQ

[3] = target: T2, VPAC2 receptor (Homo sapiens, UniProt P41587); assay: Sup-T1 cAMP agonist assay; format: cell-based; settings: human T-lymphoid cell line Sup-T1 expressing VPAC2 receptor; cAMP EIA; 5 min at room temperature; read-out: Sup-T1 cAMP EC50
T2 construct: The human T-lymphoid cell line Sup-Ti, which expresses the VPAC2 receptor; host or cells: Sup-T1 (Sup-Ti [sic]) human T-lymphoid cell line
T2 sequence (P41587 24-438): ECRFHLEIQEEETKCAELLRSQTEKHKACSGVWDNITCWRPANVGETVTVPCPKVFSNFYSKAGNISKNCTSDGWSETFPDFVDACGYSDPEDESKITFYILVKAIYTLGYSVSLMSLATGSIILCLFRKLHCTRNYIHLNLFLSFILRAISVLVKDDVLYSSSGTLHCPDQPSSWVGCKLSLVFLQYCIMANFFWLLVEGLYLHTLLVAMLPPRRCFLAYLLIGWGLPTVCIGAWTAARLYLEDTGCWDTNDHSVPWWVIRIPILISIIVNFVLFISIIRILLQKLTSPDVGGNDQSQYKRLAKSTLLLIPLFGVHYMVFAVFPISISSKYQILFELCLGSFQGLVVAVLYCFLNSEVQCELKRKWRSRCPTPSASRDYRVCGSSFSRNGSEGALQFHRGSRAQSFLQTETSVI
Experimental: The human T-lymphoid cell line Sup-Ti, which expresses the VPAC2 receptor, was obtained from the American Type Culture Collection (ATCC, CRL-1942) and maintained in growth medium at densities between 0.2 and 2×10^6 cells/ml in a 37° C. CO2 incubator. The growth medium was RPMI 1640 (Invitrogen) supplemented with 25 mM HEPES buffer and 10% fetal bovine serum (Gemini Bioproducts).
To evaluate VPAC2 agonist compound activity, cells in log-phase growth were washed once with growth medium at room temperature and plated into 96-well plates at a density of 4×10^4 cells per well in 150 uL of growth medium. Fifty uL of the compounds to be tested, prepared at appropriate concentrations in growth medium, were then added to designated wells. After 5 min at room temperature, the cells were lysed by adding 25 uL of lysis reagent 1A (cAMP Biotrak EIA system, Amersham Biosciences, RPN225) to each well. The 96-well plates were kept at room temperature for 10 min with shaking and then stored at 4° C. until analysis for cAMP (within 2 hr).
Cyclic AMP levels were determined in 100 uL of each lysate using the cAMP Biotrak Enzymeimmunoassay (EIA) kit according to the manufacture's instructions (Amersham Biosciences, RPN225). The activity of each VPAC2 agonist compound (EC50 value) was estimated by fitting the 7-concentration dose response data to a sigmoidal dose-response equation provided by the GraphPad Prism program (GraphPad Software, Inc.).

## CCCC[C@H](NC(=O)[C@H](CCNCC(=N)N)NC(=O)[C@H](CCCCN)NC(=O)[C@H](CCCNC(=N)N)NC(=O)[C@H](CC(C)C)NC(=O)[C@H](CCCCN)NC(=O)[C@@H](NC(=O)[C@H](Cc1ccc(O)cc1)NC(=O)[C@H](CC(N)=O)NC(=O)[C@H](CCC(=O)O)NC(=O)[C@@H](NC(=O)[C@H](Cc1ccccc1)NC(=O)[C@H](CO)NC(=O)[C@H](C)NC(=O)[C@H](CC(=O)O)NC(=O)[C@H](CO)NC(=O)[C@H](Cc1c[nH]cn1)NC(C)=O)C(C)O)C(C)O)C(=O)N[C@@H](C)C(=O)N[C@@H](C)C(=O)N[C@@H](CCCCN)C(=O)N[C@H]1CCCCNC(=O)C[C@@H](C(=O)N[C@@H](CC(C)C)C(=O)N[C@@H](CCCCN)C(=O)N[C@@H](CCCCN)C(=O)NCC(=O)NCC(=O)N[C@H](C(N)=O)C(C)O)NC(=O)[C@H](CC(N)=O)NC(=O)[C@H](CC(C)C)NC(=O)[C@H](Cc2ccc(O)cc2)NC1=O (stereo partly drawn) [Example 13] (Ac-HSDASF[Thr(3ξ)]ENY[Thr(3ξ)]KLRK[X1][Nle]AAKKYLNDLKKGG[Thr(3ξ)]-NH2; lactam 21-25)
[1]
  Inhibition of LPS-induced neutrophilia: ++ (++ >30%)
[2]
  Relative elastase stability: 1.7
[3]
  EC50: 17.6 nM

## CCCC[C@H](NC(=O)[C@H](CCCNC(=N)N)NC(=O)[C@H](CCCCN)NC(=O)[C@H](CCCNC(=N)N)NC(=O)[C@H](CC(C)C)NC(=O)[C@H](CCCCN)NC(=O)[C@@H](NC(=O)[C@H](Cc1ccc(O)cc1)NC(=O)[C@H](CC(N)=O)NC(=O)[C@H](CCC(=O)O)NC(=O)[C@@H](NC(=O)[C@H](Cc1ccccc1)NC(=O)[C@H](CO)NC(=O)[C@H](C)NC(=O)[C@H](CC(=O)O)NC(=O)[C@H](CO)NC(=O)[C@H](Cc1c[nH]cn1)NC(C)=O)C(C)O)C(C)O)C(=O)N[C@@H](CCC(=O)O)C(=O)N[C@@H](C)C(=O)N[C@@H](CCCCN)C(=O)N[C@H]1CCCCNC(=O)C[C@@H](C(=O)N[C@@H](CC(C)C)C(=O)N[C@@H](CCCCN)C(=O)N[C@@H](CCCCN)C(=O)NCC(=O)NCC(=O)N[C@H](C(N)=O)C(C)O)NC(=O)[C@H](CC(N)=O)NC(=O)[C@H](CC(C)C)NC(=O)[C@H](Cc2ccc(O)cc2)NC1=O (stereo partly drawn) [Example 15] (Ac-HSDASF[Thr(3ξ)]ENY[Thr(3ξ)]KLRKR[Nle]EAKKYLNDLKKGG[Thr(3ξ)]-NH2; lactam 21-25)
[1]
  Inhibition of LPS-induced neutrophilia: + (+ 10-30%)
[2]
  Relative elastase stability: 4.8
[3]
  EC50: 117 nM

## CCCC[C@H](NC(=O)[C@H](CCCNC(=N)N)NC(=O)[C@H](CCCCN)NC(=O)[C@H](CCCNC(=N)N)NC(=O)[C@H](CC(C)C)NC(=O)[C@H](CCCCN)NC(=O)[C@@H](NC(=O)[C@H](Cc1ccc(O)cc1)NC(=O)[C@H](CC(N)=O)NC(=O)[C@H](CCC(=O)O)NC(=O)[C@@H](NC(=O)[C@H](Cc1ccccc1)NC(=O)[C@H](CO)NC(=O)[C@H](C)NC(=O)[C@H](CC(=O)O)NC(=O)[C@H](C)NC(=O)[C@H](Cc1c[nH]cn1)NC(C)=O)C(C)O)C(C)O)C(=O)N[C@@H](CCC(=O)O)C(=O)N[C@@H](C)C(=O)N[C@@H](CCCCN)C(=O)N[C@H]1CCCCNC(=O)C[C@@H](C(=O)N[C@@H](CC(C)C)C(=O)N[C@@H](CCCCN)C(=O)N[C@@H](CCCCN)C(=O)NCC(=O)NCC(=O)N[C@H](C(N)=O)C(C)O)NC(=O)[C@H](CC(N)=O)NC(=O)[C@H](CC(C)C)NC(=O)[C@H](Cc2ccc(O)cc2)NC1=O (stereo partly drawn) [Example 17] (Ac-HADASF[Thr(3ξ)]ENY[Thr(3ξ)]KLRKR[Nle]EAKKYLNDLKKGG[Thr(3ξ)]-NH2; lactam 21-25)
[1]
  Inhibition of LPS-induced neutrophilia: + (+ 10-30%)
[2]
  Relative elastase stability: 4.6
[3]
  EC50: 23.3 nM

## CCCC[C@H](NC(=O)[C@H](CCC(N)=O)NC(=O)[C@H](CCCCN)NC(=O)[C@H](CCCNC(=N)N)NC(=O)[C@H](CC(C)C)NC(=O)[C@H](CCCCN)NC(=O)[C@@H](NC(=O)[C@H](Cc1ccc(O)cc1)NC(=O)[C@H](CC(N)=O)NC(=O)[C@H](CCC(=O)O)NC(=O)[C@@H](NC(=O)[C@H](Cc1ccccc1)NC(=O)[C@H](CO)NC(=O)[C@H](C)NC(=O)[C@H](CC(=O)O)NC(=O)[C@H](CO)NC(=O)[C@H](Cc1c[nH]cn1)NC(C)=O)C(C)O)C(C)O)C(=O)N[C@@H](CCC(=O)O)C(=O)N[C@@H](C)C(=O)N[C@@H](CCCCN)C(=O)N[C@H]1CCCCNC(=O)C[C@@H](C(=O)N[C@@H](CC(C)C)C(=O)N[C@@H](CCCCN)C(=O)N[C@@H](CCCCN)C(=O)NCC(=O)NCC(=O)N[C@H](C(N)=O)C(C)O)NC(=O)[C@H](CC(N)=O)NC(=O)[C@H](CC(C)C)NC(=O)[C@H](Cc2ccc(O)cc2)NC1=O (stereo partly drawn) [Example 7] (Ac-HSDASF[Thr(3ξ)]ENY[Thr(3ξ)]KLRKQ[Nle]EAKKYLNDLKKGG[Thr(3ξ)]-NH2; lactam 21-25)
[1]
  Inhibition of LPS-induced neutrophilia: ++ (++ >30%)
[2]
  Relative elastase stability: 16.4
[3]
  EC50: 632 nM

## CCCC[C@H](NC(=O)[C@H](C)NC(=O)[C@H](CCCCN)NC(=O)[C@H](CCCNC(=N)N)NC(=O)[C@H](CC(C)C)NC(=O)[C@H](CCCCN)NC(=O)[C@@H](NC(=O)[C@H](Cc1ccc(O)cc1)NC(=O)[C@H](CC(N)=O)NC(=O)[C@H](CCC(=O)O)NC(=O)[C@@H](NC(=O)[C@H](Cc1ccccc1)NC(=O)[C@H](CO)NC(=O)[C@H](C)NC(=O)[C@H](CC(=O)O)NC(=O)[C@H](CO)NC(=O)[C@H](Cc1c[nH]cn1)NC(C)=O)C(C)O)C(C)O)C(=O)N[C@@H](CCC(=O)O)C(=O)N[C@@H](C)C(=O)N[C@@H](CCCCN)C(=O)N[C@H]1CCCCNC(=O)C[C@@H](C(=O)N[C@@H](CC(C)C)C(=O)N[C@@H](CCCCN)C(=O)N[C@@H](CCCCN)C(=O)NCC(=O)NCC(=O)N[C@H](C(N)=O)C(C)O)NC(=O)[C@H](CC(N)=O)NC(=O)[C@H](CC(C)C)NC(=O)[C@H](Cc2ccc(O)cc2)NC1=O (stereo partly drawn) [Example 10] (Ac-HSDASF[Thr(3ξ)]ENY[Thr(3ξ)]KLRKA[Nle]EAKKYLNDLKKGG[Thr(3ξ)]-NH2; lactam 21-25)
[1]
  Inhibition of LPS-induced neutrophilia: ++ (++ >30%)
[2]
  Relative elastase stability: 7.4
[3]
  EC50: 447 nM
